Experimental data reported in patent publication US20070219224A1, “Compositions and Methods Relating to Pyrimidine Synthesis Inhibitors” (UAB RESEARCH FOUNDATION, THE, priority 2004, published 2007).
Entries after “also recorded” stand apart in the source; their conditions may differ. Marks after values point to notes of the source that are not given here.

Key:
RSV-infected BALB/c mice [1] = assay: Alveolar fluid clearance (AFC) in RSV-infected mice at day 2 p.i.; format: in vivo; conditions: for AFC30BASAL (mean % basal AFC after 30 minutes ± SE): day 2 p.i.; for effect on RSV-mediated inhibition of AFC at day 2 p.i. (in words): added to the AFC instillate
Description: Preparation of viral inocula and infection of mice. […] J. Physiol. Lung Cell Mol. Physiol. […] Data for each experimental group was derived from a minimum of 2 independent infections.
(§1) Systemic inhibition of de novo pyrimidine and purine synthesis. Leflunomide (5-methylisoxazole-4-[4-trifluoromethyl]carboxanilide, 35 mg/kg in distilled water containing 1% methylcellulose) was administered once daily by oral gavage in a volume of 300 μl/mouse for 8 days prior to infection, then throughout the infection period. Vehicle controls were gavaged with an equivalent volume of 1% methylcellulose in distilled water.
To systemically block de novo pyrimidine synthesis, mice were gavaged once daily for 8 days with […] of the dihydro-orotate reductase (DHOR) inhibitor leflunomide ([…] suspended in 1% methylcellulose) or vehicle prior to infection, then at 0 and 24 hours p.i. AFC studies were performed at 48 hours p.i., with no additions to the AFC instillate.
(§2) AFC studies were performed on anesthetized, ventilated BALB/c mice with normal body temperature and blood gases, over a 30 minute period after intratracheal instillation of 0.3 ml of isosmolar NaCl containing 5% fatty acid-free BSA. The number of mice analyzed per group is listed in the relevant bar of each graph.

[2] = system: IFN-α, IL-1β, KC, TNF-α in BALF; assay: Measurement of proinflammatory cytokines in BALF (ELISA); format: in vivo, BALB/c mice; conditions: RSV-infected mice, d2
Description: (§3) Preparation of viral inocula and infection of mice. Preparation of viral stocks and intranasal infection of eight to twelve week-old pathogen-free BALB/c mice of either sex with RSV strain A2 (10^6 PFU in 100 μl) were performed as described in Davis et al., “Nucleotide-mediated inhibition of alveolar fluid clearance in BALB/c mice after respiratory syncytial virus infection,” Am. J. Physiol. Lung Cell Mol. Physiol. 286:L112-L120. (2004). Data for each experimental group was derived from a minimum of 2 independent infections.
Bronchoalveolar lavage. Bronchoalveolar lavage fluid (BALF) was collected as previously described in Davis et al., (2004), using 1 ml of sterile normal saline for cytokine ELISAs, or 0.3 ml of sterile saline for nucleotide assays. Lavagates were centrifuged to remove cells and supernatants stored at −80° C.
as §1, with “water. […].” for “water.”
Measurement of proinflammatory cytokines in BALF. Cytokine levels were determined using Quantikine M ELISA kits (R & D Systems), in accordance with manufacturer's instructions.

[3] = format: in vivo
Description: as §3
as §1, with “water. […]” for “water.”

RSV strain A2 = assay: RSV replication in mouse lungs; format: in vivo, Respiratory syncytial virus; conditions: RSV-infected mice, day 2 p.i.; systemic treatment
Description: as §3
as §1, with “water. […]” for “water.”

RSV-infected BALB/c mice [4] = assay: Lung water content (wet:dry weight ratio) after RSV infection; format: in vivo; conditions: day 2, systemic treatment
Description: as §3
as §1, with “water. […]” for “water.”

uninfected BALB/c mice = assay: Alveolar fluid clearance (AFC) in uninfected or mock-infected mice; format: in vivo; conditions: uninfected mice; 1.5 mM amiloride added to the instillate
Description: Systemic inhibition of de novo pyrimidine and purine synthesis. […] Vehicle controls were gavaged with an equivalent volume of 1% methylcellulose in distilled water. Uridine (1 g/kg in 0.9% NaCl) was administered by i.p. injection every 12 hours in a volume of 100 μl (8). […]
as §2

[5] = RSV-infected mice, final concentration 25 μM (Table 6)

CC/C(=C(\c1ccccc1)c1ccc(OCCN(C)C)cc1)c1ccccc1 [Tamoxifen]
AFC (mean % AFC ± SE) (RSV-infected BALB/c mice [1]; RSV-infected mice, d2, inhibitor 25 μM in AFC instillate (Table 5)): 34.50 ± 0.94 %
AFC30BASAL (mean % basal AFC after 30 minutes ± SE) (RSV-infected BALB/c mice [1]; [5]): 34.5 ± 0.95 %
effect on RSV-mediated inhibition of AFC at day 2 p.i. (in words) (RSV-infected BALB/c mice [1]): blocked RSV-mediated inhibition of AFC

Sc1ncnc2nc[nH]c12 [6-MP, 6-mercaptopurine]
BALF proinflammatory cytokine levels (IFN-α, IL-1β, KC, TNF-α) (in words) [2]: comparable decline
IFN-α, mean cytokine concentration in BALF ± SE ([2]; systemic treatment): 105 ± 14 pg/mL
IL-1β, mean cytokine concentration in BALF ± SE ([2]; systemic treatment): 9 ± 3 pg/mL
KC, mean cytokine concentration in BALF ± SE ([2]; systemic treatment): 329 ± 63 pg/mL
TNF-α, mean cytokine concentration in BALF ± SE ([2]; systemic treatment): 0*** pg/ml
tolerance to anesthesia ([3]; 6-MP 35 mg/kg i.p. every 24 hours): poor tolerance to anesthesia (resulting in sporadic deaths)
body weight loss after RSV infection ([3]; D1 and d2 p.i., versus untreated RSV-infected mice): significant increase in body weight loss
body weight during the pretreatment (preinfection) period ([3]; before RSV infection, leflunomide 8 days, 6-MP 5 days): significant loss of body weight
AFC30BASAL (mean % basal AFC after 30 minutes ± SE) (RSV-infected BALB/c mice [1]; [5]): 26.31 ± 1.85 %
effect on RSV-mediated inhibition of AFC at day 2 p.i. (in words) (RSV-infected BALB/c mice [1]): only a minor effect
effect on RSV-mediated inhibition of AFC at day 2 p.i. (in words) (RSV-infected BALB/c mice [1]; listed as 6-mercaptopurine): not and only a small blocking effect
effect on RSV-mediated inhibition of AFC at d2 (in words) (RSV-infected BALB/c mice [1]; systemic treatment (leflunomide oral gavage; uridine, 6-MP i.p.)): no effect on AFC
virus replication in lung tissue at d2 (RSV strain A2): no significant inhibitory effect
lung water content (wet:dry weight ratio) (in words) (RSV-infected BALB/c mice [4]): did not alter lung wet:dry weight ratios

O=C(O)c1cccnc1Nc1cccc(C(F)(F)F)c1 [Niflumic acid]
AFC (mean % AFC ± SE) (RSV-infected BALB/c mice [1]; RSV-infected mice, d2, inhibitor 100 μM in AFC instillate (Table 5)): 20.28 ± 1.53%
effect on RSV-mediated inhibition of AFC at day 2 p.i. (in words) (RSV-infected BALB/c mice [1]): unaffected

O=c1ccn([C@@H]2O[C@H](COP(=O)(O)OP(=O)(O)OP(=O)(O)O)[C@@H](O)[C@H]2O)c(=O)[nH]1 [UTP]
effect of UTP in the AFC instillate on the VRAC inhibitor effect on AFC (RSV-infected BALB/c mice [1]; RSV-infected mice, d2, 500 nM UTP): reversed

O=c1c(-c2ccc(O)cc2)coc2cc(O)cc(O)c12 [Genistein]
AFC30BASAL (mean % basal AFC after 30 minutes ± SE) (RSV-infected BALB/c mice [1]; [5]): 20.39 ± 0.73%
effect on RSV-mediated inhibition of AFC at day 2 p.i. (in words) (RSV-infected BALB/c mice [1]): not recapitulated; also recorded: not replicated

CCN(CC)CCOc1ccc(C(=C(Cl)c2ccccc2)c2ccccc2)cc1 [Clomiphene]
AFC (mean % AFC ± SE) (RSV-infected BALB/c mice [1]; RSV-infected mice, d2, inhibitor 20 μM in AFC instillate (Table 5)): 31.05 ± 2.65 %
AFC30BASAL (mean % basal AFC after 30 minutes ± SE) (RSV-infected BALB/c mice [1]; RSV-infected mice, final concentration 20 μM (Table 6)): 31.0 ± 2.67 %
effect on RSV-mediated inhibition of AFC at day 2 p.i. (in words) (RSV-infected BALB/c mice [1]): blocked

N=C(N)NC(=O)c1nc(Cl)c(N)nc1N [AMIL, amiloride]
AFC (mean % AFC ± SE) with amiloride in instillate (RSV-infected BALB/c mice [1]; RSV-infected mice, d2, 1.5 mM amiloride added to the instillate): 22.82 ± 1.92%
AFC (mean % AFC ± SE) with amiloride in instillate (uninfected BALB/c mice): 14.65 ± 1.59 %

apyrase
effect on RSV-mediated inhibition of AFC at day 2 p.i. (in words) (RSV-infected BALB/c mice [1]): reversed
